Experimental data published in publication PMC5218480 (PLoS ONE, 2017).

System: MV-4-11 cells
Assay: Gene expression microarray analysis (Affymetrix PrimeView) and GSEA
Type: cell-based, human
Design: RFU PODN (11730768_x_at) / Fold change /veh PODN (11730768_x_at) / RFU LINC00158 (11744669_a_at) / Fold change /veh LINC00158 (11744669_a_at) / RFU DUSP10 (11751237_a_at) / Fold change /veh DUSP10 (11751237_a_at) / RFU ID3 (11757404_x_at) / Fold change /veh ID3 (11757404_x_at) / RFU PLEKHG5 (11737974_s_at) / Fold change /veh PLEKHG5 (11737974_s_at) / RFU LRRC4B (11730491_at) / Fold change /veh LRRC4B (11730491_at) / RFU GIMAP4 (11747438_a_at) / Fold change /veh GIMAP4 (11747438_a_at) / RFU KRT8 (11758183_x_at) / Fold change /veh KRT8 (11758183_x_at) / RFU CNN1 (11734310_a_at) / Fold change /veh CNN1 (11734310_a_at) / RFU VPS37D (11726825_at) / Fold change /veh VPS37D (11726825_at) / RFU C10orf10 (11716522_x_at) / Fold change /veh C10orf10 (11716522_x_at) / RFU KIR2DL2 /// KIR2DL4 /// KIR2DL5A /// KIR2DL5B /// KIR2DS1 /// KIR2DS2 /// KIR2DS3 /// KIR2DS4 /// KIR3DL3 /// KIR3DL3 /// KIR3DS1 (11738374_at) / Fold change /veh KIR2DL2 /// KIR2DL4 /// KIR2DL5A /// KIR2DL5B /// KIR2DS1 /// KIR2DS2 /// KIR2DS3 /// KIR2DS4 /// KIR3DL3 /// KIR3DL3 /// KIR3DS1 (11738374_at) / RFU C1QL1 (11718748_at) / Fold change /veh C1QL1 (11718748_at) / RFU TMPRSS4 (11747572_a_at) / Fold change /veh TMPRSS4 (11747572_a_at) / RFU HAMP (11756126_x_at) / Fold change /veh HAMP (11756126_x_at) / RFU RNFT2 (11725882_a_at) / Fold change /veh RNFT2 (11725882_a_at) / RFU NR4A2 (11747474_a_at) / Fold change /veh NR4A2 (11747474_a_at) / RFU ABCC12 (11746883_a_at) / Fold change /veh ABCC12 (11746883_a_at) / RFU TMEM136 (11760407_x_at) / Fold change /veh TMEM136 (11760407_x_at) / RFU CLDN22 /// WWC2 (11732394_at) / Fold change /veh CLDN22 /// WWC2 (11732394_at) / RFU HLA-DPB1 (11760878_x_at) / Fold change /veh HLA-DPB1 (11760878_x_at) / RFU SPINT1 (11716480_a_at) / Fold change /veh SPINT1 (11716480_a_at) / RFU GAP43 (11754022_s_at) / Fold change /veh GAP43 (11754022_s_at) / RFU A4GNT (11735810_at) / Fold change /veh A4GNT (11735810_at) / RFU PRB3 (11715151_x_at) / Fold change /veh PRB3 (11715151_x_at) / RFU TUBB4B (11761932_at) / Fold change /veh TUBB4B (11761932_at) / RFU CAPN14 (11732068_a_at) / Fold change /veh CAPN14 (11732068_a_at) / RFU TMCC2 (11721928_a_at) / Fold change /veh TMCC2 (11721928_a_at) / RFU IRGQ (11745062_a_at) / Fold change /veh IRGQ (11745062_a_at) / RFU FAM174B (11720279_a_at) / Fold change /veh FAM174B (11720279_a_at) / RFU TMPRSS4 (11748680_a_at) / Fold change /veh TMPRSS4 (11748680_a_at) / RFU FAM212B (11763350_a_at) / Fold change /veh FAM212B (11763350_a_at) / RFU PLEKHG5 (11743358_a_at) / Fold change /veh PLEKHG5 (11743358_a_at) / RFU ZSCAN30 (11745921_a_at) / Fold change /veh ZSCAN30 (11745921_a_at) / RFU CMKLR1 (11741424_a_at) / Fold change /veh CMKLR1 (11741424_a_at) / RFU LOC101060620 /// MAPK8IP1 (11723275_at) / Fold change /veh LOC101060620 /// MAPK8IP1 (11723275_at) / RFU SPTSSB (11747773_x_at) / Fold change /veh SPTSSB (11747773_x_at) / RFU PRSS12 (11739890_at) / Fold change /veh PRSS12 (11739890_at) / RFU BIN1 (11741810_x_at) / Fold change /veh BIN1 (11741810_x_at) / RFU WNT11 (11732464_a_at) / Fold change /veh WNT11 (11732464_a_at) / RFU C10orf10 (11716521_a_at) / Fold change /veh C10orf10 (11716521_a_at) / RFU C5orf56 (11738089_at) / Fold change /veh C5orf56 (11738089_at) / RFU CYB561 (11721691_x_at) / Fold change /veh CYB561 (11721691_x_at) / RFU ANKRD19P (11752326_a_at) / Fold change /veh ANKRD19P (11752326_a_at) / RFU OR2T12 /// OR2T33 /// OR2T8 (11738714_s_at) / Fold change /veh OR2T12 /// OR2T33 /// OR2T8 (11738714_s_at) / RFU VCAN (11748164_a_at) / Fold change /veh VCAN (11748164_a_at) / RFU JSRP1 (11732532_at) / Fold change /veh JSRP1 (11732532_at) / RFU KRTAP10-11 (11738290_x_at) / Fold change /veh KRTAP10-11 (11738290_x_at) / RFU MYO3A (11730013_a_at) / Fold change /veh MYO3A (11730013_a_at) / RFU EBF3 (11725865_a_at) / Fold change /veh EBF3 (11725865_a_at) / RFU CAMK2N1 (11719241_x_at) / Fold change /veh CAMK2N1 (11719241_x_at) / RFU C5orf56 (11738088_a_at) / Fold change /veh C5orf56 (11738088_a_at) / RFU OLFML3 (11715873_a_at) / Fold change /veh OLFML3 (11715873_a_at) / RFU LOC100653217 /// NTM (11731650_a_at) / Fold change /veh LOC100653217 /// NTM (11731650_a_at) / RFU MAPK11 (11762145_a_at) / Fold change /veh MAPK11 (11762145_a_at) / RFU FIZ1 (11724087_x_at) / Fold change /veh FIZ1 (11724087_x_at) / RFU OASL (11726364_x_at) / Fold change /veh OASL (11726364_x_at) / RFU SOX15 (11748057_x_at) / Fold change /veh SOX15 (11748057_x_at) / RFU CD79A (11719716_a_at) / Fold change /veh CD79A (11719716_a_at) / RFU HIST1H1D (11736915_at) / Fold change /veh HIST1H1D (11736915_at) / RFU CASKIN2 (11723855_a_at) / Fold change /veh CASKIN2 (11723855_a_at) / RFU LOC730098 (11760151_x_at) / Fold change /veh LOC730098 (11760151_x_at) / RFU OR4N2 (11742367_at) / Fold change /veh OR4N2 (11742367_at) / RFU PRRT2 (11749266_a_at) / Fold change /veh PRRT2 (11749266_a_at) / RFU SNX32 (11753110_a_at) / Fold change /veh SNX32 (11753110_a_at) / RFU CDHR5 (11726645_a_at) / Fold change /veh CDHR5 (11726645_a_at) / RFU RCAN1 (11760418_a_at) / Fold change /veh RCAN1 (11760418_a_at) / RFU FAM167A (11723789_a_at) / Fold change /veh FAM167A (11723789_a_at) / RFU FAM26E (11764081_at) / Fold change /veh FAM26E (11764081_at) / RFU ISYNA1 (11749810_s_at) / Fold change /veh ISYNA1 (11749810_s_at) / RFU ACY1 (11761880_at) / Fold change /veh ACY1 (11761880_at) / RFU 11764098_at / Fold change /veh 11764098_at / RFU SAMD14 (11745864_x_at) / Fold change /veh SAMD14 (11745864_x_at) / RFU NPB (11741838_a_at) / Fold change /veh NPB (11741838_a_at) / RFU TMPRSS6 (11731388_a_at) / Fold change /veh TMPRSS6 (11731388_a_at) / RFU KRTAP10-2 (11738614_at) / Fold change /veh KRTAP10-2 (11738614_at) / RFU ARHGAP8 /// PRR5-ARHGAP8 (11727945_x_at) / Fold change /veh ARHGAP8 /// PRR5-ARHGAP8 (11727945_x_at) / RFU KRTAP5-7 /// NADSYN1 (11734609_at) / Fold change /veh KRTAP5-7 /// NADSYN1 (11734609_at) / RFU RASL12 (11751679_a_at) / Fold change /veh RASL12 (11751679_a_at) / RFU CDKN2B (11736163_a_at) / Fold change /veh CDKN2B (11736163_a_at) / RFU PRF1 (11729649_at) / Fold change /veh PRF1 (11729649_at) / RFU, ZNF638 /// ZNF638-IT1 / Fold change vs veh, ZNF638 /// ZNF638-IT1 / RFU, PANK3 / Fold change vs veh, PANK3 / RFU, SH3YL1 / Fold change vs veh, SH3YL1 / RFU, ZEB2 / Fold change vs veh, ZEB2 / RFU, NRIP1 / Fold change vs veh, NRIP1 / RFU, PTTG1IP / Fold change vs veh, PTTG1IP / RFU, CAPN2 / Fold change vs veh, CAPN2 / RFU, MED14 / Fold change vs veh, MED14 / RFU, SNORA58 / Fold change vs veh, SNORA58 / RFU, C1orf63 / Fold change vs veh, C1orf63 / RFU, LRRFIP1 / Fold change vs veh, LRRFIP1 / RFU, NDUFAF7 / Fold change vs veh, NDUFAF7 / RFU, SLC12A2 / Fold change vs veh, SLC12A2 / RFU, IBTK / Fold change vs veh, IBTK / RFU, ESF1 / Fold change vs veh, ESF1 / Fold change vs veh, TMEM50B / RFU, TAOK1 / Fold change vs veh, TAOK1 / RFU, ACBD3 / Fold change vs veh, ACBD3 / RFU, TMA16 / Fold change vs veh, TMA16 / RFU, RWDD3 / Fold change vs veh, RWDD3 / RFU, BCAT1 / Fold change vs veh, BCAT1 / RFU, EDEM3 / Fold change vs veh, EDEM3 / RFU, TMEM33 / Fold change vs veh, TMEM33 / RFU, WDR75 / Fold change vs veh, WDR75 / RFU, AHCTF1 / Fold change vs veh, AHCTF1 / RFU, TFRC / Fold change vs veh, TFRC / RFU, ZDHHC17 / Fold change vs veh, ZDHHC17 / RFU, NOM1 / Fold change vs veh, NOM1 / RFU, ARL8B / Fold change vs veh, ARL8B / RFU, ZBTB11 / Fold change vs veh, ZBTB11 / RFU, TAMM41 / Fold change vs veh, TAMM41 / RFU, KIAA1704 /// LOC100996395 / Fold change vs veh, KIAA1704 /// LOC100996395 / RFU, ING1 / Fold change vs veh, ING1 / RFU, TRMT61B / Fold change vs veh, TRMT61B / RFU, FUBP3 / Fold change vs veh, FUBP3 / RFU, TP53 / Fold change vs veh, TP53 / RFU, TNKS2 / Fold change vs veh, TNKS2 / RFU, ZFP14 / Fold change vs veh, ZFP14 / RFU, ACTR2 / Fold change vs veh, ACTR2 / RFU, PPP3R1 / Fold change vs veh, PPP3R1 / RFU, PIK3R1 / Fold change vs veh, PIK3R1 / RFU, HNRNPA1 / Fold change vs veh, HNRNPA1 / RFU, RNF170 / Fold change vs veh, RNF170 / RFU, ZNF28 / Fold change vs veh, ZNF28 / RFU, RNGTT / Fold change vs veh, RNGTT / RFU, OGT / Fold change vs veh, OGT / RFU, BRD1 / Fold change vs veh, BRD1 / RFU, MARS / Fold change vs veh, MARS / RFU, ZNF655 / Fold change vs veh, ZNF655 / RFU, FAHD1 / Fold change vs veh, FAHD1 / RFU, BDP1 / Fold change vs veh, BDP1 / RFU, LRRCC1 / Fold change vs veh, LRRCC1 / RFU, ARID1A / Fold change vs veh, ARID1A / RFU, ZNF146 / Fold change vs veh, ZNF146 / RFU, ZNF330 / Fold change vs veh, ZNF330 / RFU, GPN3 / Fold change vs veh, GPN3 / RFU, C9orf123 / Fold change vs veh, C9orf123 / RFU, N4BP2L2 / Fold change vs veh, N4BP2L2 / RFU, ARFIP1 / Fold change vs veh, ARFIP1 / RFU, FAM179B / Fold change vs veh, FAM179B / RFU, BCL10 / Fold change vs veh, BCL10 / RFU, UHRF1BP1L / Fold change vs veh, UHRF1BP1L / RFU, BET1 / Fold change vs veh, BET1 / RFU, CNOT2 / Fold change vs veh, CNOT2 / RFU, ZNF268 / Fold change vs veh, ZNF268 / Fold change vs veh, ZNF507 / RFU, DGCR2 / Fold change vs veh, DGCR2 / RFU, WDSUB1 / Fold change vs veh, WDSUB1 / Fold change vs veh, HSP90B1 /// MIR3652 / RFU, ADSS / Fold change vs veh, ADSS / RFU, GK / Fold change vs veh, GK / RFU, ZNF148 / Fold change vs veh, ZNF148 / RFU, TAF9 / Fold change vs veh, TAF9 / RFU, SLC1A5 / Fold change vs veh, SLC1A5 / RFU, SLMO2 / Fold change vs veh, SLMO2 / RFU, ABCC4 / Fold change vs veh, ABCC4 / RFU, LOC101060439 /// RAP1B / Fold change vs veh, LOC101060439 /// RAP1B / RFU, RFX7 / Fold change vs veh, RFX7 / RFU, GTPBP10 / Fold change vs veh, GTPBP10 / RFU, CNEP1R1 / Fold change vs veh, CNEP1R1 / RFU, BIVM-ERCC5 /// ERCC5 / Fold change vs veh, BIVM-ERCC5 /// ERCC5 / RFU, ILF3 / Fold change vs veh, ILF3 / RFU 11762660_at / Fold change /veh 11762660_at / RFU VCAN (11757783_s_at) / Fold change /veh VCAN (11757783_s_at) / RFU DDX43 (11728927_at) / Fold change /veh DDX43 (11728927_at) / RFU KRT8 (11758188_x_at) / Fold change /veh KRT8 (11758188_x_at) / RFU NKD1 (11759106_at) / Fold change /veh NKD1 (11759106_at) / RFU SRD5A1 (11742802_a_at) / Fold change /veh SRD5A1 (11742802_a_at) / RFU TPSAB1 /// TPSB2 (11721975_s_at) / Fold change /veh TPSAB1 /// TPSB2 (11721975_s_at) / RFU GSTM3 (11746129_a_at) / Fold change /veh GSTM3 (11746129_a_at) / RFU IL23R (11737362_x_at) / Fold change /veh IL23R (11737362_x_at) / RFU TMEM51 (11727254_a_at) / Fold change /veh TMEM51 (11727254_a_at) / RFU PIWIL2 (11732686_x_at) / Fold change /veh PIWIL2 (11732686_x_at) / RFU ORM1 (11744905_x_at) / Fold change /veh ORM1 (11744905_x_at) / RFU CCDC152 (11743942_at) / Fold change /veh CCDC152 (11743942_at) / RFU ECM1 (11717891_a_at) / Fold change /veh ECM1 (11717891_a_at) / RFU IL23R (11748794_a_at) / Fold change /veh IL23R (11748794_a_at) / RFU TNFAIP8L3 (11732012_x_at) / Fold change /veh TNFAIP8L3 (11732012_x_at) / RFU MBOAT4 (11741988_at) / Fold change /veh MBOAT4 (11741988_at) / RFU 11764193_at / Fold change /veh 11764193_at / RFU TMEM53 (11763286_at) / Fold change /veh TMEM53 (11763286_at) / RFU MAGEB2 (11727129_at) / Fold change /veh MAGEB2 (11727129_at) / RFU TMEM200A (11744735_a_at) / Fold change /veh TMEM200A (11744735_a_at) / RFU CCDC152 (11751479_a_at) / Fold change /veh CCDC152 (11751479_a_at) / RFU FAM211A (11726209_a_at) / Fold change /veh FAM211A (11726209_a_at) / RFU RGS16 (11746705_a_at) / Fold change /veh RGS16 (11746705_a_at) / RFU VCAN (11755009_s_at) / Fold change /veh VCAN (11755009_s_at) / RFU RHOB (11743442_s_at) / Fold change /veh RHOB (11743442_s_at) / RFU RGS16 (11720943_a_at) / Fold change /veh RGS16 (11720943_a_at) / RFU RGS16 (11720944_at) / Fold change /veh RGS16 (11720944_at) / RFU, VPS4B / Fold change vs veh, VPS4B / RFU, CREB1 / Fold change vs veh, CREB1 / RFU, DNAJC13 / Fold change vs veh, DNAJC13 / RFU, GNAQ / Fold change vs veh, GNAQ / RFU, CDK5R1 / Fold change vs veh, CDK5R1 / RFU, ZRANB3 / Fold change vs veh, ZRANB3 / RFU, CUL4A / Fold change vs veh, CUL4A / RFU, CCNY / Fold change vs veh, CCNY / RFU, UFL1 / Fold change vs veh, UFL1 / RFU, COG3 / Fold change vs veh, COG3 / RFU, DIAPH2 / Fold change vs veh, DIAPH2 / RFU, SKA2 / Fold change vs veh, SKA2 / RFU, AFF3 / Fold change vs veh, AFF3 / RFU, LMF1 / Fold change vs veh, LMF1 / RFU, IPO11 / Fold change vs veh, IPO11 / RFU, DFFB / Fold change vs veh, DFFB / RFU, FOXP1 / Fold change vs veh, FOXP1 / RFU, CARD8 / Fold change vs veh, CARD8 / RFU, STRN3 / Fold change vs veh, STRN3 / RFU, ADK / Fold change vs veh, ADK / RFU, RASSF2 / Fold change vs veh, RASSF2 / RFU, WIPF1 / Fold change vs veh, WIPF1 / RFU, LARP1B / Fold change vs veh, LARP1B / RFU, RASA1 / Fold change vs veh, RASA1 / RFU, RB1 / Fold change vs veh, RB1 / RFU, PPFIA1 / Fold change vs veh, PPFIA1 / RFU, MAT2A / Fold change vs veh, MAT2A / RFU, CCT5 / Fold change vs veh, CCT5 / RFU, WDR92 / Fold change vs veh, WDR92 / RFU, CUX1 / Fold change vs veh, CUX1 / RFU, TTC7A / Fold change vs veh, TTC7A / RFU, TMEM135 / Fold change vs veh, TMEM135 / RFU, DEPTOR / Fold change vs veh, DEPTOR / RFU, CPM / Fold change vs veh, CPM / RFU, DNAJB6 / Fold change vs veh, DNAJB6 / RFU, CACNA2D3 / Fold change vs veh, CACNA2D3 / RFU, DTX4 / Fold change vs veh, DTX4 / RFU, TFCP2 / Fold change vs veh, TFCP2 / RFU, GMCL1 /// GMCL1P1 / Fold change vs veh, GMCL1 /// GMCL1P1 / RFU, AEBP2 / Fold change vs veh, AEBP2 / RFU, SNHG1 /// SNORD22 /// SNORD25 /// SNORD26 /// SNORD27 /// SNORD28 /// SNORD29 /// SNORD31 / Fold change vs veh, SNHG1 /// SNORD22 /// SNORD25 /// SNORD26 /// SNORD27 /// SNORD28 /// SNORD29 /// SNORD31 / Fold change (Aza/veh), C12orf56 (ProbeSet 11735607_a_at) / Fold change (ACY-1035/veh), C12orf56 (ProbeSet 11735607_a_at) / Fold change (Aza/veh), FGFR1OP (ProbeSet 11751329_s_at) / Fold change (ACY-1035/veh), FGFR1OP (ProbeSet 11751329_s_at) / Fold change (Aza/veh), VPS36 (ProbeSet 11739960_a_at) / Fold change (ACY-1035/veh), VPS36 (ProbeSet 11739960_a_at) / RFU SYPL1 (11715823_x_at) / Fold change /veh SYPL1 (11715823_x_at) / RFU IGFBP7 (11715501_s_at) / Fold change /veh IGFBP7 (11715501_s_at) / RFU REEP3 (11722064_at) / Fold change /veh REEP3 (11722064_at) / RFU IGLL1 (11728026_x_at) / Fold change /veh IGLL1 (11728026_x_at): dose or concentration left out as unconfirmed
Details: ProbeSet 11718569_a_at; LIST D

## Nc1ccc(-c2cccs2)cc1NC(=O)c1ccc2c(c1)cc(C1CC1)n2CCN1CCOCC1 [ACY-1035]
  Fold change vs veh, WIPF1: 0.95
